# Experimental data as given in BindingDB's records for doi:10.1016/s0960-894x(00)00170-0 (Merck Research Laboratories, 2000).
# Target: Thrombin (Homo sapiens)
# Experiment: The compound was tested for its ability to inhibit thrombin.
smiles,measurement,value
"Cc1nc(N)ccc1CNC(=O)Cn1c(C)cc2c(c1=O)NC(=O)[C@](C)(CC(C)C)C2 [N-(6-Amino-2-methyl-pyridin-3-ylmethyl)-2-((R)-3-isobutyl-3,6-dimethyl-2,8-dioxo-2,3,4,8-tetrahydro-1H-[1,7]naphthyridin-7-yl)-acetamide]",Ki,0.24 nM
